Assay results: publication PMC10987480, “Biological and mutational analyses of CXCR4–antagonist interactions and design of new antagonistic analogs” (Bioscience Reports, 2023)
Positions of bridges follow the written chain, without caps; N, C: chain ends. Non-standard residues stand in square brackets, D forms with d. Chains are numbered I, II in the order given. No end group written: not given here.

Columns and labels:
[1] = target: T1, CXCR4 F87A (Homo sapiens, UniProt P61073, F87A); test: Competitive binding to CXCR4 mutant F87A (12G5, CHO cells); conditions: TM2, class of reduction vs wild-type CXCR4, 12G5 competition, averages of at least three independent experiments
T1 construct: expressed in transfected cells
T1 sequence (P61073 whole entry F87A): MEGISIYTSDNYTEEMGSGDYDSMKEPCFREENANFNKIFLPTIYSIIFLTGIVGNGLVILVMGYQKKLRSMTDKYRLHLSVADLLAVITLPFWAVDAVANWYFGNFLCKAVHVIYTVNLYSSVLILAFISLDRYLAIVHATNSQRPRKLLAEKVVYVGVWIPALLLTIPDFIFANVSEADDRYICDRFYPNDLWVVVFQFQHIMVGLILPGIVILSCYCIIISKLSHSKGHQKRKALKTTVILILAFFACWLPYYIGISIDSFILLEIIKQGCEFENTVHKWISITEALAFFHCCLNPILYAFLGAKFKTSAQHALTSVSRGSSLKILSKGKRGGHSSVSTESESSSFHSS
Method: (§1) Plasmid pcDNA3-CXCR4 and mutated pcDNA3-CXCR4 were extracted and transfected into CHO cells using Lipofectamine 2000 according to the manufacturer’s guidelines. The selective medium containing G418 at a concentration of 1.2 mg/ml was applied to isolate stably transfected cells. CHO cells expressing wild-type CXCR4 and mutant CXCR4 were obtained using fluorescence-activated cell sorting (FACS).
(§2) All of the CXCR4 mutants were prepared using PCR technology. Briefly, pairs of asymmetrical primers containing the desired amino acid mutations (Supplementary Tables S1 and S2), each complementary to opposite strands of the pcDNA3–CXCR4, were designed for amplification by Q5® High-Fidelity DNA polymerase and the generation of mutated constructs. The methylated pcDNA3–CXCR4 templates were digested by DpnI. The mutated pcDNA3–CXCR4 was transformed into competent E. coli TOP10 for long-term storage and amplification.
(§3) The procedure for the CXCR4 competitive binding experiments was published previously. Briefly, CXCR4 antibody 12G5 (250 ng/ml) was incubated with 5 × 10^5 cells and varying concentrations of unlabeled compounds in a final volume of 100 μl of assay buffer (PBS with 0.5% BSA and 0.05% NaN3) in 96-well plates for 40 min on ice, after being washed with assay buffer once. The cells were incubated with FITC-conjugated second antibody IgG for 30 min on ice, then washed with assay buffer three times. The fluorescence intensity was measured for excitation at 485 nm and emission at 535 nm using multimode plate reader (PerkinElmer). The IC50 values were calculated using graphpad Prism 7. Experiments were performed at least three times.

[2] = target: T2, CXCR4 W94A (Homo sapiens, UniProt P61073, W94A); test: Competitive binding to CXCR4 mutant W94A (12G5, CHO cells); conditions: TM2, class of reduction vs wild-type CXCR4, 12G5 competition, averages of at least three independent experiments
T2 construct: expressed in transfected cells
T2 sequence (P61073 whole entry W94A): as the sequence (P61073 whole entry F87A) above, with A87F, W94A counted along it
Method: as §1, §2, §3

[3] = target: T3, CXCR4 D97A (Homo sapiens, UniProt P61073, D97A); test: Competitive binding to CXCR4 mutant D97A (12G5, CHO cells); conditions: TM2, class of reduction vs wild-type CXCR4, 12G5 competition, averages of at least three independent experiments
T3 construct: expressed in transfected cells
T3 sequence (P61073 whole entry D97A): as the sequence (P61073 whole entry F87A) above, with A87F, D97A counted along it
Method: as §1, §2, §3

[4] = target: T4, CXCR4 Y116A (Homo sapiens, UniProt P61073, Y116A); test: Competitive binding to CXCR4 mutant Y116A (12G5, CHO cells); conditions: TM3, class of reduction vs wild-type CXCR4, 12G5 competition, averages of at least three independent experiments
T4 construct: expressed in transfected cells
T4 sequence (P61073 whole entry Y116A): as the sequence (P61073 whole entry F87A) above, with A87F, Y116A counted along it
Method: as §1, §2, §3

[5] = target: T5, CXCR4 N119A (Homo sapiens, UniProt P61073, N119A); test: Competitive binding to CXCR4 mutant N119A (12G5, CHO cells); conditions: TM3, class of reduction vs wild-type CXCR4, 12G5 competition, averages of at least three independent experiments
T5 construct: expressed in transfected cells
T5 sequence (P61073 whole entry N119A): as the sequence (P61073 whole entry F87A) above, with A87F, N119A counted along it
Method: as §1, §2, §3

[6] = target: T6, CXCR4 D171A (Homo sapiens, UniProt P61073, D171A); test: Competitive binding to CXCR4 mutant D171A (12G5, CHO cells); conditions: TM4, class of reduction vs wild-type CXCR4, 12G5 competition, averages of at least three independent experiments
T6 construct: expressed in transfected cells
T6 sequence (P61073 whole entry D171A): as the sequence (P61073 whole entry F87A) above, with A87F, D171A counted along it
Method: as §1, §2, §3

[7] = target: T7, CXCR4 W195A (Homo sapiens, UniProt P61073, W195A); test: Competitive binding to CXCR4 mutant W195A (12G5, CHO cells); conditions: TM4, class of reduction vs wild-type CXCR4, 12G5 competition, averages of at least three independent experiments
T7 construct: expressed in transfected cells
T7 sequence (P61073 whole entry W195A): as the sequence (P61073 whole entry F87A) above, with A87F, W195A counted along it
Method: as §1, §2, §3

[8] = target: T8, CXCR4 Q200A (Homo sapiens, UniProt P61073, Q200A); test: Competitive binding to CXCR4 mutant Q200A (12G5, CHO cells); design: key to the marks not given beside the values; conditions: TM5, class of reduction vs wild-type CXCR4, 12G5 competition, averages of at least three independent experiments
T8 construct: expressed in transfected cells
T8 sequence (P61073 whole entry Q200A): as the sequence (P61073 whole entry F87A) above, with A87F, Q200A counted along it
Method: as §1, §2, §3

[9] = target: T9, CXCR4 Y255A (Homo sapiens, UniProt P61073, Y255A); test: Competitive binding to CXCR4 mutant Y255A (12G5, CHO cells); conditions: TM6, class of reduction vs wild-type CXCR4, 12G5 competition, averages of at least three independent experiments
T9 construct: expressed in transfected cells
T9 sequence (P61073 whole entry Y255A): as the sequence (P61073 whole entry F87A) above, with A87F, Y255A counted along it
Method: as §1, §2, §3

[10] = target: T10, CXCR4 Y256A (Homo sapiens, UniProt P61073, Y256A); test: Competitive binding to CXCR4 mutant Y256A (12G5, CHO cells); conditions: TM6, class of reduction vs wild-type CXCR4, 12G5 competition, averages of at least three independent experiments
T10 construct: expressed in transfected cells
T10 sequence (P61073 whole entry Y256A): as the sequence (P61073 whole entry F87A) above, with A87F, Y256A counted along it
Method: as §1, §2, §3

[11] = target: T11, CXCR4 I259A (Homo sapiens, UniProt P61073, I259A); test: Competitive binding to CXCR4 mutant I259A (12G5, CHO cells); design: key to the marks not given beside the values; conditions: TM6, class of reduction vs wild-type CXCR4, 12G5 competition, averages of at least three independent experiments
T11 construct: expressed in transfected cells
T11 sequence (P61073 whole entry I259A): as the sequence (P61073 whole entry F87A) above, with A87F, I259A counted along it
Method: as §1, §2, §3

[12] = target: T12, CXCR4 D262N (Homo sapiens, UniProt P61073, D262N); test: Competitive binding to CXCR4 mutant D262N (12G5, CHO cells); conditions: TM6, class of reduction vs wild-type CXCR4, 12G5 competition, averages of at least three independent experiments
T12 construct: expressed in transfected cells
T12 sequence (P61073 whole entry D262N): as the sequence (P61073 whole entry F87A) above, with A87F, D262N counted along it
Method: as §1, §2, §3

[13] = target: T13, CXCR4 E288Q (Homo sapiens, UniProt P61073, E288Q); test: Competitive binding to CXCR4 mutant E288Q (12G5, CHO cells); conditions: TM7, class of reduction vs wild-type CXCR4, 12G5 competition, averages of at least three independent experiments
T13 construct: expressed in transfected cells
T13 sequence (P61073 whole entry E288Q): as the sequence (P61073 whole entry F87A) above, with A87F, E288Q counted along it
Method: as §1, §2, §3

[14] = target: T14, CXCR4 E288A (Homo sapiens, UniProt P61073, E288A); test: Competitive binding to CXCR4 mutant E288A (12G5, CHO cells); conditions: TM7, class of reduction vs wild-type CXCR4, 12G5 competition, averages of at least three independent experiments
T14 construct: expressed in transfected cells
T14 sequence (P61073 whole entry E288A): as the sequence (P61073 whole entry F87A) above, with A87F, E288A counted along it
Method: as §1, §2, §3

[15] = target: T15, CXCR4 E288D (Homo sapiens, UniProt P61073, E288D); test: Competitive binding to CXCR4 mutant E288D (12G5, CHO cells); conditions: TM7, class of reduction vs wild-type CXCR4, 12G5 competition, averages of at least three independent experiments
T15 construct: expressed in transfected cells
T15 sequence (P61073 whole entry E288D): as the sequence (P61073 whole entry F87A) above, with A87F, E288D counted along it
Method: as §1, §2, §3

[16] = target: CXCR4 (Homo sapiens, UniProt P61073); test: Competitive CXCR4 binding assay (12G5 antibody probe), wild-type CXCR4 transfected CHO cells; design: expressed in transfected cells; Competitive receptor binding activity, wild-type CXCR4 (WT): key to the marks not given beside the values; conditions: class relative to wild-type; 12G5 competition, stably transfected CHO cells; averages of at least three independent experiments
Sequence of CXCR4 (Homo sapiens, UniProt P61073) (P61073 whole entry): as the sequence (P61073 whole entry F87A) above, with A87F counted along it
Method: The CXCR4-specific antibody, 12G5 was used as a probe for the competitive CXCR4 binding assay to evaluate the binding activity of CXCR4 antagonists.
Figure 1 Competitive CXCR4 binding curves of eleven CXCR4 antagonists The CXCR4 transfected CHO cells were incubated with different concentrations of antagonists and 250 ng/ml 12G5 antibody. The CXCR4-binding 12G5 antibody was recognized by FITC-conjugated anti-IgG second antibody. The cells treated with only second antibody were used as a negative control (0%) while cells treated with both 12G5 antibody and second antibody were used as a positive control (100%). Cells treated with CXCR4 antagonists were calculated in percentage relative to the positive and negative controls. The data were averages of at least three independent experiments and shown as mean ± standard error of the mean (S.E.M.).
as §3

[17] = tested on: CXCR4; conditions: read-out: IC50; cited from earlier work
From the text: To understand the receptor–ligand recognition mechanism involving CXCR4 and its antagonists, here in this study we conducted a series of comparative analyses of the biological activities and CXCR4 binding sites of eleven known CXCR4 antagonists, including the three mentioned above, using cell-based bioassays, CXCR4 site-directed mutagenesis and computer-aided molecular modeling. These antagonists studied here were chosen from different representative structural types including both D-peptides (i.e., HC4319, DV1, DV1 dimer, and DV3) and a representative counterpart L-peptide (i.e., V1) derived ...

I: [dL]G[dA][dS][dW][dH][dR][dP][dD][dK][dC][dC][dL]G[dY][dQ][dK][dR][dP][dL][dP] / II: [dL]G[dA][dS][dW][dH][dR][dP][dD][dK][dC][dC][dL]G[dY][dQ][dK][dR][dP][dL][dP] (disulfide I:11-II:11, I:12-II:12) [DV1 dimer]
Competitive receptor binding activity, CXCR4 F87A [1]: + (30–60% reduction compared with wild-type CXCR4)
Competitive receptor binding activity, CXCR4 W94A [2]: + (30–60% reduction compared with wild-type CXCR4)
Competitive receptor binding activity, CXCR4 D97A [3]: ++ (10–29% reduction compared with wild-type CXCR4)
Competitive receptor binding activity, CXCR4 Y116A [4]: + (30–60% reduction compared with wild-type CXCR4)
Competitive receptor binding activity, CXCR4 N119A [5]: + (30–60% reduction compared with wild-type CXCR4)
Competitive receptor binding activity, CXCR4 D171A [6]: ++ (10–29% reduction compared with wild-type CXCR4)
Competitive receptor binding activity, CXCR4 W195A [7]: +++
Competitive receptor binding activity, CXCR4 Q200A [8]: +++
Competitive receptor binding activity, CXCR4 Y255A [9]: +++
Competitive receptor binding activity, CXCR4 Y256A [10]: +++
Competitive receptor binding activity, CXCR4 I259A [11]: +++
Competitive receptor binding activity, CXCR4 D262N [12]: + (30–60% reduction compared with wild-type CXCR4)
Competitive receptor binding activity, CXCR4 E288Q [13]: + (30–60% reduction compared with wild-type CXCR4)
Competitive receptor binding activity, CXCR4 E288A [14]: + (30–60% reduction compared with wild-type CXCR4)
Competitive receptor binding activity, CXCR4 E288D [15]: ++ (10–29% reduction compared with wild-type CXCR4)
Competitive receptor binding activity, wild-type CXCR4 (WT) [16]: +++

LGASWHRPDKCCLGYQKRPLPQVLLSSWYPTSQLCSKPGVIFLTKRGRQVCADKSKDWVKKLMQQLPVTAR [vMIP-II, viral macrophage-inflammatory protein-II, full-length natural chemokine antagonist produced by human herpesvirus-8; recombinant from Peprotech]
Competitive receptor binding activity, CXCR4 F87A [1]: + (30–60% reduction compared with wild-type CXCR4)
Competitive receptor binding activity, CXCR4 W94A [2]: + (30–60% reduction compared with wild-type CXCR4)
Competitive receptor binding activity, CXCR4 D97A [3]: ++ (10–29% reduction compared with wild-type CXCR4)
Competitive receptor binding activity, CXCR4 Y116A [4]: ++ (10–29% reduction compared with wild-type CXCR4)
Competitive receptor binding activity, CXCR4 N119A [5]: ++ (10–29% reduction compared with wild-type CXCR4)
Competitive receptor binding activity, CXCR4 D171A [6]: +++
Competitive receptor binding activity, CXCR4 W195A [7]: ++ (10–29% reduction compared with wild-type CXCR4)
Competitive receptor binding activity, CXCR4 Q200A [8]: +++
Competitive receptor binding activity, CXCR4 Y255A [9]: +++
Competitive receptor binding activity, CXCR4 Y256A [10]: +++
Competitive receptor binding activity, CXCR4 I259A [11]: +++
Competitive receptor binding activity, CXCR4 D262N [12]: +++
Competitive receptor binding activity, CXCR4 E288Q [13]: ++ (10–29% reduction compared with wild-type CXCR4)
Competitive receptor binding activity, CXCR4 E288A [14]: +++
Competitive receptor binding activity, CXCR4 E288D [15]: +++
IC50 [17]: 5.8 nM
Competitive receptor binding activity, wild-type CXCR4 (WT) [16]: +++
